Target: T1, Recombinant human renin (Homo sapiens, UniProt P00797)
T1 construct: isolate the active form (residues 67-406); made in house; host or cells: FreeStyle 293-F cells (transient expression of pcDNA3.1(+)/hREN)
T1 sequence (P00797 67-406): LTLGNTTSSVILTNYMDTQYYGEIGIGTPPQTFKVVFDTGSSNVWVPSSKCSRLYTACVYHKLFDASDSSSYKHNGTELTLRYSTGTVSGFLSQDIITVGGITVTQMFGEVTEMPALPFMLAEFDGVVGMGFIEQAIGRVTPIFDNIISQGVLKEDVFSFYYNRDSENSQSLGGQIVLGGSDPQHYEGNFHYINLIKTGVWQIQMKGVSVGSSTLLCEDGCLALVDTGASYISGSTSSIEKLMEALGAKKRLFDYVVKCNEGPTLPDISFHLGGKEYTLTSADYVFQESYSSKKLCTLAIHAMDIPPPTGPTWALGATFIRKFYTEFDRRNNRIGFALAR
Experiment: In vitro enzymatic activity assay of renin inhibitors (fluorogenic peptide substrate)
Assay type: biochemical
Conditions: read-out: IC50 of Exemplified Compounds Against Renin
Outline: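 Enzyme: recombinant human renin, 3 nM final, 10 min compound pre-incubation at 37 °C; buffer 50 mM Hepes pH 7.4 with 0.1 mg/mL BSA or extra 2% BSA; 5% DMSO.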

SMILES | IC50 [nM]
COCCCn1c([C@@H]2CCCN(C(=O)C[C@H](N)CNC(=O)Nc3cc(C)ccc3OC)C2)nc2ccccc21 [Compound 287, 1-((S)-2-amino-4-((R)-3-(1-(3-methoxypropyl)-1H-benzo[d]imidazol-2-yl)piperidin-1-yl)-4-oxobutyl)-3-(2-methoxy-5-methylphenyl)urea] | 100 to 1000
NC(=O)CCn1c([C@@H]2CCCN(C(=O)C[C@H](N)Cc3ccc(-c4ccc(Cl)cc4)cc3)C2)nc2ccccc21 [Compound 489, 3-(2-((R)-1-((R)-3-amino-4-(4′-chlorobiphenyl-4-yl)butanoyl)piperidin-3-yl)-1H-benzo[d]imidazol-1-yl)propanamide] | > 1000
COCCCn1c([C@@H]2CCCN(C(=O)[C@@H]3CN(C(=O)c4cccc(Cl)c4)C[C@H]3N)C2)nc2ccccc21 [Compound 375, ((3R,4S)-4-amino-1-(3-chlorobenzoyl)pyrrolidin-3-yl)((R)-3-(1-(3-methoxypropyl)-1H-benzo[d]imidazol-2-yl)piperidin-1-yl)methanone] | 100 to 1000
COCCCn1c([C@@H]2CCCN(C(=O)C[C@H](N)Cc3ccc(F)c(F)c3)C2)nc2ccccc21 [Compound 76, (R)-3-amino-4-(3,4-difluorophenyl)-1((R)-3-(1-(3-methoxypropyl)-1H-benzo[d]imidazol-2-yl)piperidin-1-yl)butan-1-one] | 100 to 1000
COCCCn1c([C@@H]2CCCN(C(=O)[C@@H]3CN(C(=O)N4CCCC4)C[C@H]3N)C2)nc2ccccc21 [Compound 417, ((3R,4S)-4-amino-1-(pyrrolidine-1-carbonyl)pyrrolidin-3-yl)((R)-3-(1-(3-methoxypropyl)-1H-benzo[d]imidazol-2-yl)piperidin-1-yl)methanone] | > 1000
CCCSc1ncccc1C(=O)N1C[C@@H](N)[C@H](C(=O)N2CCC[C@@H](c3nc4ccccc4n3CCCOC)C2)C1 [Compound 418] | > 1000
COCCCn1c([C@@H]2CCCN(C(=O)C[C@H](N)CNC(=O)NC3CCCCC3)C2)nc2ccccc21 [Compound 323, 1-((S)-2-amino-4-((R)-3-(1-(3-methoxypropyl)-1H-benzo[d]imidazol-2-yl)piperidin-1-yl)-4-oxobutyl)-3-cyclohexylurea] | > 1000
COCCCn1c([C@@H]2CCCN(C(=O)[C@@H]3CN(S(=O)(=O)c4ccccc4C#N)C[C@H]3N)C2)nc2ccccc21 [Compound 427, 2-((3S,4R)-3-amino-4-((R)-3-(1-(3-methoxypropyl)-1H-benzo[d]imidazol-2-yl)piperidine-1-carbonyl)pyrrolidin-1-ylsulfonyl)benzonitrile] | > 1000
COCCCn1c([C@@H]2CCCN(C(=O)[C@@H]3CN(C(=O)CC4CCCCC4)C[C@H]3N)C2)nc2ccccc21 [Compound 397, l-((3S,4R)-3-amino-4-((R)-3-(1-(3-methoxypropyl)-1H-benzo[d]imidazol-2-yl)piperidine-1-carbonyl)pyrrolidin-1-yl)-2-cyclohexylethanone] | > 1000
COCCCn1c([C@@H]2CCCN(C(=O)CC(O)Cc3ccc(-c4ccccc4)cc3)C2)nc2ccccc21 (stereo in doubt) [Compound 73, (R)-4-(Biphenyl-4-yl)-3-hydroxy-1-(3-(1-(3-methoxypropyl)-1H-benzo[d]imidazol-2-yl)piperidin-1-yl)butan-1-one] | 100 to 1000
Cc1ccc(NC(=O)N2CCCC(c3nc4ccccc4[nH]3)C2)cc1Cl (stereo not shown) [Compound 1, 3-(1H-Benzo[d]imidazol-2-yl)-N-(3-chloro-4-methylphenyl)piperidine-1-carboxamide] | > 1000
COCCCn1c([C@@H]2CCCN(C(=O)C[C@H](N)CNS(=O)(=O)C(C)C)C2)nc2ccccc21 [Compound 312, N-((S)-2-amino-4-((R)-3-(1-(3-methoxypropyl)-1H-benzo[d]imidazol-2-yl)piperidin-1-yl)-4-oxobutyl)propane-2-sulfonamide] | 100 to 1000
O=C(Nc1ccc2c(c1)CCC2)N1CCCC(c2nc3ccccc3[nH]2)C1 (stereo not shown) [Compound 9, 3-(1H-benzo[d]imidazol-2-yl)-N-(2,3-dihydro-1H-inden-5-yl)piperidine-1-carboxamide] | > 1000
O=C(C1CCCN1)N1CCCC(c2nc3ccccc3[nH]2)C1 (stereo not shown) [Compound 45, (3-(1H-benzo[d]imidazol-2-yl)piperidin-1-yl)(pyrrolidin-2-yl)methanone] | > 1000
COCCCn1c([C@@H]2CCCN(C(=O)C[C@H](N)CNC(=O)c3ccc(Cl)c(Cl)c3)C2)nc2ccccc21 [Compound 262, N-((S)-2-amino-4-((R)-3-(1-(3-methoxypropyl)-1H-benzo[d]imidazol-2-yl)piperidin-1-yl)-4-oxobutyl)-3,4-dichlorobenzamide] | 100 to 1000
COCCCn1c([C@@H]2CCCN(C(=O)[C@@H]3CN(S(=O)(=O)c4cc(Cl)c(Cl)cc4Cl)C[C@H]3N)C2)nc2ccccc21 [Compound 345, ((3R,4S)-4-amino-1-(2,4,5-trichlorophenylsulfonyl)pyrrolidin-3-yl)((R)-3-(1-(3-methoxypropyl)-1H-benzo[d]imidazol-2-yl)piperidin-1-yl)methanone] | 100 to 1000
COCCCn1c([C@@H]2CCCN(C(=O)C[C@H](N)Cc3ccc4ccccc4c3)C2)nc2cccc(Cl)c21 [Compound 97, (R)-3-amino-1-((R)-3-(7-chloro-1-(3-methoxypropyl)-1H-benzo[d]imidazol-2-yl)piperidin-1-yl)-4-(naphthalen-2-yl)butan-1-one] | < 100
COCCCn1c([C@@H]2CCCN(C(=O)[C@@H]3CN(C(=O)C(C)C)C[C@H]3N)C2)nc2ccccc21 [Compound 396, 1-((3S,4R)-3-amino-4-((R)-3-(1-(3-methoxypropyl)-1H-benzo[d]imidazol-2-yl)piperidine-1-carbonyl)pyrrolidin-1-yl)-2-methylpropan-1-one] | > 1000
COCCCn1c([C@@H]2CCCN(C(=O)[C@@H]3CN(S(=O)(=O)c4cc(C(F)(F)F)ccc4Cl)C[C@H]3N)C2)nc2ccccc21 [Compound 356, ((3R,4S)-4-amino-1-(2-chloro-5-(trifluoromethyl)phenylsulfonyl)pyrrolidin-3-yl)((R)-3-(1-(3-methoxypropyl)-1H-benzo[d]imidazol-2-yl)piperidin-1-yl)methanone] | 100 to 1000

Further lines, results first:

IC50 [nM] | SMILES
< 100 | COCCCn1c([C@@H]2CCCN(C(=O)C[C@H](N)Cc3ccc(-c4cc[nH]c4)cc3)C2)nc2ccccc21 [Compound 152, (R)-4-(4-(1H-pyrrol-3-yl)phenyl)-3-amino-1-((R)-3-(1-(3-methoxypropyl)-1H-benzo[d]imidazol-2-yl)piperidin-1-yl)butan-1-one]
< 100 | COCCCn1c([C@@H]2CCCN(C(=O)C[C@H](N)Cc3ccc(-c4ccc5c(c4)NC(=O)C5)cc3)C2)nc2c(F)cccc21 [Compound 459, 6-(4-((R)-2-amino-4-((R)-3-(4-fluoro-1-(3-methoxypropyl)-1H-benzo[d]imidazol-2-yl)piperidin-l-yl)-4-oxobutyl)phenyl)indolin-2-one]
< 100 | COCCCn1c([C@@H]2CCCN(C(=O)C[C@H](N)CNC(=O)Nc3cccc(OC)c3)C2)nc2ccccc21 [Compound 254, 1-((S)-2-amino-4-((R)-3-(1-(3-methoxypropyl)-1H-benzo[d]imidazol-2-yl)piperidin-1-yl)-4-oxobutyl)-3-(3-methoxyphenyl)urea]
< 100 | COCCCn1c([C@@H]2CCCN(C(=O)C[C@H](N)Cc3ccc(-c4ccc5nccn5c4)cc3)C2)nc2ccccc21 [Compound 139, (R)-3-amino-4-(4-(imidazo[1,2-a]pyridin-6-yl)phenyl)-1-((R)-3-(1-(3-methoxypropyl)-1H-benzo[d]imidazol-2-yl)piperidin-1-yl)butan-1-one]
< 100 | COCCCn1c([C@@H]2CCCN(C(=O)C[C@H](N)Cc3ccc(-c4ccc5occc5c4)cc3)C2)nc2c(C)cccc21 [Compound 494, (R)-3-amino-4-(4-(benzofuran-5-yl)phenyl)-1-((R)-3-(1-(3-methoxypropyl)-4-methyl-1H-benzo[d]imidazol-2-yl)piperidin-1-yl)butan-1-one]
< 100 | COCCCn1c([C@@H]2CCCN(C(=O)C[C@H](N)Cc3ccc(-n4c(=O)[nH]c5cc(C)c(C)cc54)cc3)C2)nc2ccccc21 [Compound 219, 1-(4-((R)-2-amino-4-((R)-3-(1-(3-methoxypropyl)-1H-benzo[d]imidazol-2-yl)piperidin-1-yl)-4-oxobutyl)phenyl)-5,6-dimethyl-1H-benzo[d]imidazol-2(3H)-one]
< 100 | COCCCn1c([C@@H]2CCCN(C(=O)C[C@H](N)CNC(=O)Nc3ccc(OC)cc3)C2)nc2ccccc21 [Compound 253, 1-((S)-2-amino-4-((R)-3-(1-(3-methoxypropyl)-1H-benzo[d]imidazol-2-yl)piperidin-1-yl)-4-oxobutyl)-3-(4-methoxyphenyl)urea]
< 100 | COCCCn1c([C@@H]2CCCN(C(=O)C[C@H](N)Cc3ccc(-c4ccc(NC(=O)OC)cc4)cc3)C2)nc2ccccc21 [Compound 176, methyl 4′-((R)-2-amino-4-((R)-3-(1-(3-methoxypropyl)-1H-benzo[d]imidazol-2-yl)piperidin-1-yl)-4-oxobutyl)biphenyl-4-ylcarbamate]
< 100 | COCCCn1c([C@@H]2CCCN(C(=O)C[C@H](N)Cc3ccc(-c4ccc(C(=O)NC(CO)CO)cc4)cc3)C2)nc2ccccc21 [Compound 184, 4′-((R)-2-amino-4-((R)-3-(1-(3-methoxypropyl)-1H-benzo[d]imidazol-2-yl)piperidin-1-yl)-4-oxobutyl)-N-(1,3-dihydroxypropan-2-yl)biphenyl-4-carboxamide]
